Measurements as given in PMC7291367, “Insightful Backbone Modifications Preventing Proteolytic Degradation of Neurotensin Analogs Improve NTS1-Induced Protective Hypothermia” (Frontiers in Chemistry, 2020).
Entries after “also recorded” stand apart in the source; their conditions may differ. Read-outs that look alike come from different tables or passages of the source. Numbered stars: 1 amine (or outer) side, 2 acyl side, 3 side chain; on linkers, the order of the positions; unused ones are H or OH. Square brackets hold non-standard residues; d marks the D form. Peptide text beside a SMILES is read from it. X1 = NCCCC[C@H](N)CN([C@@H](CCCCN)C(=O)[*:2])[*:1]; Ala(SiMe3) = C[Si](C)(C)C[C@H](N)C(=O)O; Dmt = Cc1cc(O)cc(C)c1C[C@H](N)C(=O)O; Tle = CC(C)(C)[C@H](N)C(=O)O

Columns and labels:
[1] = Plasma stability assay (UPLC/MS); format: in vitro ADME; settings: rat, plasma, 37°C, incubation up to 24 h
Method: Rat plasma was obtained from blood by keeping the translucent phase after centrifugation at 15,000 g over 5 min. Plasma stability assay was carried out by incubating each compound at different incubation times in rat plasma at a final concentration of 0.156 mM. […] Then, 70 μl of a solution containing 10% trichloroacetic acid (TCA) and 0.5% nicotinamine, an internal standard, was added to stop the degradation by proteases. After centrifugation at 15,000 g for 30 min, supernatant was filtered through 0.22-μm filter and analyzed by UPLC/MS (Water H Class Acquity UPLC, mounted with Acquity UPLC BEH C18 column, 1.7 μm, 2.1 × 50 mm and paired to a SQ Detector 2). Compounds 1, 2, and 5 were analyzed using the mass or UV spectrum. Quantification was done by determining the area under the curve (AUC) ratio of each compound over AUC of nicotinamine for each incubation time. Data were plotted into GraphPad Prism 8 and the half-life of each compound was calculated using one-phase decay fit and represented the mean ± SEM of minimum three separate experiments.

hNTS2 [2] = target: T1, hNTS2 (Homo sapiens, UniProt O95665); settings: Ki values taken from the literature (Figure 1 legend) ref Fanelli et al., 2015; Eiselt et al., 2019; read-out: Binding, Ki hNTS2; cited from earlier work
T1 sequence (O95665 whole entry): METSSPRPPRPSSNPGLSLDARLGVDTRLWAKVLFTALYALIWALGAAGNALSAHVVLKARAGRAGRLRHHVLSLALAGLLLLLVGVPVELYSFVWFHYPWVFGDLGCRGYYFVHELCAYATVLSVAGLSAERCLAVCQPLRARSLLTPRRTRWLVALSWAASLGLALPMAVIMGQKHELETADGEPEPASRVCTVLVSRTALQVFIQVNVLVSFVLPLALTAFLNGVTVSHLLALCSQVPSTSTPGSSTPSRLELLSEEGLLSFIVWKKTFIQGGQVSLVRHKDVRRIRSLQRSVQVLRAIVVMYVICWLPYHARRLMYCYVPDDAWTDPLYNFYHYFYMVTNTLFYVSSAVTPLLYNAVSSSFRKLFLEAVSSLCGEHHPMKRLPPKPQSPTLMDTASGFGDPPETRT

hNTS2 [3] = target: T1, hNTS2; assay: Competitive radioligand binding assay, 125I-[Tyr3]-NT displacement, 1321N1 cell membranes; settings: ratio of Ki hNTS1 to Ki hNTS2
Method: (§1) All media and additives are from Wisent (St-Bruno, QC). […] After 1 h of incubation at room temperature, the binding reaction mixture was transferred in polyethylenimine-coated 96-well-filter plates (Millipore, Billerica, MA). Reaction was terminated by filtration, and plates were washed three times with 200 μl of ice-cold binding buffer. […] Data were plotted using GraphPad Prism 8 using the One-site—Fit log (IC50) and represent the mean ± SEM of at least three separate experiments performed in triplicate.

hNTS1 [4] = target: T2, hNTS1 (Homo sapiens, UniProt P30989); settings: 2015, cited from earlier work
T2 sequence (P30989 whole entry): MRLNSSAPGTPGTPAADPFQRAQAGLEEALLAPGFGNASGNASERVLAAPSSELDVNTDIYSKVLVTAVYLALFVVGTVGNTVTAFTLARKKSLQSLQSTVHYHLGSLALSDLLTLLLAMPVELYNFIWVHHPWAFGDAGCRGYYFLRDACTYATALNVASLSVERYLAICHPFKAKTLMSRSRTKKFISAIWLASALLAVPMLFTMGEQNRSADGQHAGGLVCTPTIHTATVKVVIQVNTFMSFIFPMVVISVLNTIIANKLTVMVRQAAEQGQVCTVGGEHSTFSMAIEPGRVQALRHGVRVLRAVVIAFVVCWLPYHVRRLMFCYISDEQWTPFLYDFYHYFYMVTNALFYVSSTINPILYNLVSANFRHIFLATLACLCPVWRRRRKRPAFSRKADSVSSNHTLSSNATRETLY

Sprague-Dawley rats = assay: Body temperature measurement after intrathecal injection; format: in vivo; settings: rat; for effect on body temperature: compared to the saline-treated group; for Hypothermia ΔTemp: 30 μg/kg, i.t., change in body temperature from baseline at 60 min
Excerpt: The experimental procedures in this study were approved by the Animal Care Committee of the Université de Sherbrooke (protocol n°035-18B) and were in accordance with policies and directives of the Canadian Council on Animal Care. Adult male Sprague-Dawley rats, weighing 175–225 g (Charles River laboratories, St-Constant, Québec, Canada), were maintained on a 12-h light/dark cycle with free access to food and water and were housed two per cage on Aspen shavings in a quiet room.
Rats were lightly anesthetized with isoflurane/oxygen (Baxter corporation, Mississauga, ON, Canada; 2 L/min) flow and 25 μl of each compound were injected intrathecally with a 27-G 1/2 needle (BD PrecisionGlide, USA) into the subarachnoid space between vertebrae L5 and L6. Analogs 1–14 were diluted in physiological saline at 5 mg/ml, whereas compounds 15 and 16 were diluted in DMSO. For body temperature measurement, the injected solution of these both compounds contained 6% DMSO at final concentration (30 μg/kg).
Three consecutive days prior to testing, animals were individually acclimatized to manipulations and to a thermistor probe 5 min per day. The day of the test, experiments were always performed in a quiet room and between 8:00 and 12:00 PM. to reduce any variation related to the circadian rhythm. Body temperature was measured using a thermistor probe inserted into the rectum of adult Sprague-Dawley rats. Temperatures were recorded immediately before (baseline) and each 10 min for up to 60 min following intrathecal administration of saline, vehicle (6% DMSO) or NT analogs at 30 μg/kg. Changes in body temperature (Δ body temp) from baseline were determined for each animal. Data are expressed as mean ± SEM of 5 to 20 animals per condition.
Data are expressed as mean ± standard errors of the mean (SEM). All graphs and statistical analysis were performed using GraphPad Prism 8 (GraphPad software, La Jolla, CA, USA). A two-way ANOVA followed by Bonferroni's multiple comparisons test was used to determine significant differences between drug- and vehicle-treated rats at different timepoints post-injection.

hNTS1 [5] = target: T2, hNTS1; assay: Competitive radioligand binding assay, 125I-[Tyr3]-NT displacement, CHO-K1 cell membranes
Method: as §1

[6] = Ki values taken from the literature (Figure 1 legend) ref Fanelli et al., Eiselt et al., 2019, read-out: Binding, Ki hNTS1

| Compound | half-life at 0.156 mM [1] [h] | Ki (hNTS2 [2]) [nM] | NTS1/NTS2 selectivity (hNTS2 [3]) | Ki (hNTS1 [4]; [6]) [nM] | effect on body temperature (Sprague-Dawley rats; 30 μg/kg i.t.) | Hypothermia ΔTemp (Sprague-Dawley rats) [°C] | temperature drop (Sprague-Dawley rats; for up to 60 min, 30 μg/kg i.t.) | fold increase in affinity at NTS1 (hNTS1 [5]; compared to 1) [fold] | fold increase in affinity at NTS1 (hNTS1 [5]; compared to native NT(8-13)) [fold] | Ki (hNTS1 [4]; ref Fanelli et al., read-out: Ki NTS1) [nM] |
| --- | --- | --- | --- | --- | --- | --- | --- | --- | --- | --- |
| Cc1cc(O)cc(C)c1C[C@H](NC(=O)[C@@H]1CCCN1C(=O)[C@H](CCCCN)NC[C@@H](N)CCCCN)C(=O)N[C@H](C(=O)N[C@@H](CC(C)C)C(=O)O)C(C)(C)C [Compound 16, H-Lysψ[CH2NH]Lys-Pro-Dmt-Tle-Leu-OH] (H-[X1]P[Dmt][Tle]L-OH) | > 20 | 1.4 ± 0.5 | 79 | 110 ± 2 | long-lasting hypothermia | −2.0 ± 0.3 | more than 2 °C | – | – | – |
| CC[C@H](C)[C@H](NC(=O)[C@H](Cc1ccc(O)cc1)NC(=O)[C@@H]1CCCN1C(=O)[C@H](CCCCN)NC(=O)[C@@H](N)CCCCN)C(=O)N[C@@H](C[Si](C)(C)C)C(=O)O [Compound 3, H-Lys-Lys-Pro-Tyr-Ile-TMSAla-OH] (H-KKPYI[Ala(SiMe3)]-OH) | – | 0.25 ± 0.07 | 0.1 | 0.018 ± 0.004 | not effective in reducing the body temperature; also recorded: not effective to induce drop in body temperature | −0.07 ± 0.1 | – | 220 | 80 | ~0.02 |
